Earlier results as cited in patent US20220160704A2, “COMPOSITIONS FOR OPIATE AND OPIOID PREVENTION AND REVERSAL, AND METHODS OF THEIR USE” (Torralva Medical Therapeutics LLC, priority 2018, published 2022).
Counter-ions that a name gives are not always drawn. Like-named read-outs stand apart in the source and are kept apart here.

Assays:
[1] = cited from earlier work
[2] = subcutaneous injection of 10 mg; cited from earlier work
[3] = cited from earlier work; remark: listed apart in the source
α-1 1A subtype = target: T1, α-1 1A subtype (Homo sapiens, UniProt P35348); conditions: greater than Prazosin; cited from earlier work
T1 sequence (P35348 1-466): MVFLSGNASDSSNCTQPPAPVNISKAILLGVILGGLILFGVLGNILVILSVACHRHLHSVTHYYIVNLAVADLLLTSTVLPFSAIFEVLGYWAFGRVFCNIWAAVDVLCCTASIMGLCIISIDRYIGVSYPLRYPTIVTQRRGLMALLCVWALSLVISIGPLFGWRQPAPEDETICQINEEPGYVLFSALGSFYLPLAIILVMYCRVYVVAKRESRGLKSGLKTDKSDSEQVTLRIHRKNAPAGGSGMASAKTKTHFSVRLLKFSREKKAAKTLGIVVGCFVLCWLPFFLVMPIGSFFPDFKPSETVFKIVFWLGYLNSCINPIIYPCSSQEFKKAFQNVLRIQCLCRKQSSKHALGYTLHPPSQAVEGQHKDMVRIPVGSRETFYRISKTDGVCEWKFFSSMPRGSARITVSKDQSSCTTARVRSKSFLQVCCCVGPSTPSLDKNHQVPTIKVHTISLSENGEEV

[4] = cited from earlier work; remark: listed apart in the source
[5] = cited from earlier work; remark: listed apart in the source
[6] = in vivo; cited from earlier work
[7] = cited from earlier work; remark: listed apart in the source
[8] = cited from earlier work; remark: listed apart in the source
[9] = pH 7.4; cited from earlier work
[10] = 25° C.; cited from earlier work

C=CCN1CC[C@]23c4c5ccc(O)c4O[C@H]2C(=O)CC[C@@]3(O)[C@H]1C5.Cl [Naloxone hydrochloride, 17-Allyl-4,5α-epoxy-3,14-dihydroxymorphinan-6-one hydrochloride]
Solubility in chloroform ([1]; chloroform): practically insoluble | Solubility in dilute acids ([1]; dilute acids): soluble | Solubility in ethanol / alcohol [1]: slightly soluble | Solubility in ether ([1]; ether / ethyl ether): practically insoluble | Solubility in strong alkali ([1]; strong alkali): soluble | Solubility in water [1]: soluble

CC[C@@H]1C(=O)OC[C@@H]1Cc1cncn1C [pilocarpine HCl]
Salivation [2]: 1 L

1 H,5 H-Tropan-3-ol (±)-tropate [Atropine]
Dose that can produce a paradoxical bradycardia ([3]; adults): less than 0.5 mg

CCOc1ccccc1OCCN[C@H](C)Cc1ccc(OC)c(S(N)(=O)=O)c1.Cl [Tamsulosin hydrochloride, (−)-(R)-5-[2-[[2-(o-Ethoxyphenoxy)ethyl]amino]propyl]-2-methoxybenzenesulfon-amide, monohydrochloride]
Binding affinity at the 1A subtype over other α-1 antagonists (α-1 1A subtype): 12-30 times | Incidence of hypotension, syncope, vertigo ([4]; Dose 0.4-0.8 mg QD): 0.2%-0.6% | Half-life (in words) ([5]; in vivo): long half-life | Crossing of the blood brain barrier [6]: ability to cross the blood brain barrier

C[C@H](Cc1cc2c(c(C(N)=O)c1)N(CCCO)CC2)NCCOc1ccccc1OCC(F)(F)F [SILODOSIN]
Solubility in ethanol / alcohol [1]: freely soluble | Solubility in acetic acid ([1]; glacial acetic acid / acetic acid): very soluble | Solubility in water [1]: very slightly soluble | Dizziness and orthostatic hypotension ([4]; 8 mg QD, study of 897 subjects): 3% | Syncope, subjects affected / subjects ([4]; 8 mg QD, study of 897 subjects): 1/897

C[N+](C)(C)CCOC(=O)CCC(=O)OCC[N+](C)(C)C [Succinylcholine]
Persistence of maximum blockade ([7]; 0.3-1.1 mg/kg): about 2 minutes | Time to recovery after maximum blockade ([7]; 0.3-1.1 mg/kg): 4 to 6 min | Time until neuromuscular blockade develops ([7]; 0.3-1.1 mg/kg): about 1 minute | Onset of effect given intramuscularly ([7]; intramuscular, up to 3 to 4 mg/kg): 2 to 3 min | Storage stability of solutions ([8]; refrigeration): lose potency unless refrigerated | Bradycardia ([3]; human, in vivo): bradycardia is common in pediatric patients after an initial dose of 1.5 mg/kg

O=C1CC[C@@]2(O)[C@H]3Cc4ccc(O)c5c4[C@@]2(CCN3CC2CC2)[C@H]1O5 [Naltrexone base anhydrous, morphinan-6-one, 17 (cyclopropylmethyl) 4,5-epoxy3,14-dihydroxy-(5a)]
Solubility in ethanol / alcohol [1]: soluble | Solubility in water [1]: insoluble

COc1cc2nc(N3CCN(C(=O)C4CCCO4)CC3)nc(N)c2cc1OC (racemic) [TERAZOSIN, (RS)-Piperazine, 1-(4-amino-6,7-dimethoxy-2-quinazolinyl)-4-[(tetra-hydro-2-furanyl)carbonyl]-, monohydrochloride, dihydrate]
Solubility in isotonic saline [1]: freely soluble | Solubility in water [1]: freely soluble | Postural hypotension ([4]; trial of 600 subjects): 4% | Syncope ([4]; trial subjects): 0.6% | Half-life (in words) ([5]; in vivo): long half-life

COc1cc2nc(N3CCN(C(=O)c4ccco4)CC3)nc(N)c2cc1OC.Cl [PRAZOSIN, 1-(4-amino-6,7-dimethoxy-2-quiazolinyl)-4-(2-furoyl) piperazine]
Solubility in isotonic saline [1]: slightly soluble | Solubility in water [1]: slightly soluble | Syncope and symptoms of hypotension, share of subjects ([4]; 1 mg BID/TID up to 20 mg total QD): 6-12% | Crossing of the blood brain barrier [6]: ability to cross the blood brain barrier

COc1cc2nc(N3CCN(C(=O)C4COc5ccccc5O4)CC3)nc(N)c2cc1OC (centres unmarked) [DOXAZOSIN, 1-(4-amino-6,7-dimethoxy-2-quinazolinyl)-4-(1,4benzodioxan-2-ylcarbonyl) piperazine methanesulfonate]
Solubility in acetone ([1]; acetone): very slightly soluble | Solubility in dichloromethane / methylene chloride [1]: very slightly soluble | Solubility in dimethylformamide ([1]; dimethylformamide): soluble | Solubility in dimethylsulfoxide ([1]; dimethylsulfoxide): freely soluble | Solubility in ethanol / alcohol [1]: slightly soluble | Solubility in methanol ([1]; methanol): slightly soluble | Solubility in water ([1]; 25° C.): 0.8% | Solubility in water [1]: slightly soluble | Half-life (in words) ([5]; in vivo): long half-life

CNC(C)C(O)c1ccccc1 (stereo not drawn) [Ephedrine, benzenemethanol α-[1-(methylamino)ethyl]-sulfate (2:1) (salt)]
Light stability ([8]; exposure to light): darkens on exposure to light

COc1cc2nc(N(C)CCCNC(=O)C3CCCO3)nc(N)c2cc1OC.Cl (racemic) [ALFUZOSIN, (R,S)—N-[3-[(4-amino-6,7-dimethoxy-2-quinazolinyl)methylamino]propyl]tetrahydro-2-furancarboxamide hydrochloride]
Solubility in dichloromethane / methylene chloride [1]: practically insoluble | Solubility in ethanol / alcohol [1]: sparingly soluble | Solubility in water [1]: freely soluble | Dizziness ([4]; human, in vivo): 6% | Hypotension ([4]; human, in vivo): 0.4% | Syncope ([4]; human, in vivo): 0.2%

C=CC[N+]1([C@H]2C[C@H]3[C@@H]4CC[C@H]5C[C@H](O)[C@@H](N6CCOCC6)C[C@]5(C)[C@H]4CC[C@]3(C)[C@H]2OC(C)=O)CCCC1.[Br-] [rocuronium bromide, 1-[17β-(acetyloxy)-3α-hydroxy-2β-(4-morpholinyl)-5α-androstan-16β-yl]-1-(2-propenyl)pyrroidinium bromide]
Time in which most patients have intubation completed ([7]; initial dose 0.6 mg/kg): ≤ 2 min | Time to maximum blockade in most patients ([7]; initial dose 0.6 mg/kg): less than 3 minutes | Time to neuromuscular block sufficient for intubation (80% block or greater), median (range) ([7]; initial dose 0.6 mg/kg): 1 (0.4-6) minute(s)

CCOC(=O)c1ncn2c1CN(C)C(=O)c1cc(F)ccc1-2 [Flumazenil, ethyl 8-fluoro-5,6-dihydro-5-methyl-6-oxo-4H-imidazo[1,5-a](1,4) benzodiazepine-3-carboxylate]
Solubility in acidic aqueous solutions ([1]; acidic aqueous solutions): slightly soluble | Solubility in water [1]: insoluble | octanol: buffer partition coefficient [9]: 14 to 1

CN1CCC[C@H]1c1cccnc1 [Nicotine]
Miscibility with water ([1]; base form): miscible with water in its base form between 60 °C and 210 °C | Vapor pressure [10]: 5.5 Pa | Time to reach the brain ([5]; after inhalation): 10 to 20 s | Route of excretion ([5]; in vivo): primarily excreted in urine | Crossing of the blood brain barrier [6]: crosses the blood-brain barrier

Cl.Clc1cccc(Cl)c1NC1=NCCN1 [Clondine hydrochloride, 2-(2,6-dichlorophenylamino)-2-imidazoline hydrochloride]
Maximum effective daily dose ([3]; oral): 2.4 mg
